What was measured:
Settings in all cases: 48 h
NOMO1 [1] = test: AUC of viability dose-response curve (% viability x log10 dose units); higher = less sensitive
Procedure, shortened: (§1)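 Leukemia cells adapted to each medium were seeded at 500 or 1000 cells/well in 1536-well plates and dosed with library compounds in DMSO at 11 threefold doses from 47 μM to 0.79 nM for 48 h at 37°C. CellTiter-Glo One luminescence was normalised per plate to DMSO and cell-free wells, then fitted with a four-parameter log-logistic model over log10 doses. Area under the curve was taken from this fit by the trapezoidal rule, with curves above full viability scaled and curves failing quality control removed.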

P12-Ichikawa [2] = test: as above
Procedure, shortened: as §1

NOMO1 [3] = test: cell viability relative to DMSO control; higher = less cytotoxic
Procedure, shortened: (§2)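 Library compounds in DMSO were pin-dosed in an 11-point threefold series (47 μM to 0.79 nM) onto leukemia cells in 1536-well plates (5 μl). Plates held 500 cells/well of NOMO1 or SEM or 1000 cells/well of P12-Ichikawa, each adapted for at least four passages in each medium. Luminescence was read with CellTiter-Glo One after 48 h at 37°C. Viability means the per-plate percentage relative to DMSO wells, using cell-free wells as background.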

P12-Ichikawa [4] = test: as above
Procedure, shortened: as §2

SEM cells [5] = test: as above
Procedure, shortened: as §2

SEM cells [6] = test: AUC of viability dose-response curve (% viability x log10 dose units); higher = less sensitive
Procedure, shortened: as §1

CN1C(=O)CCS(=O)(=O)C1c1ccc(Cl)cc1 (stereo unspecified)
AUC of viability dose-response curve
Settings	HPLM + 10% dialyzed FBS	RPMI 5 mM glucose + 10% FBS	RPMI 5 mM glucose + 10% dialyzed FBS
NOMO1 [1]	447	472	459
P12-Ichikawa [2]	452	448	442

CCCNCC(O)COc1ccccc1C(=O)CCc1ccccc1 (stereo unspecified)
cell viability [%]
Settings	NOMO1 [3]	P12-Ichikawa [4]	SEM cells [5]
HPLM + 10% dialyzed FBS, 0.000781 µM	82.6	101	86.5
HPLM + 10% dialyzed FBS, 0.00234 µM	117	98.9	86.5
HPLM + 10% dialyzed FBS, 0.00702 µM	113	107	117
HPLM + 10% dialyzed FBS, 0.0211 µM	106	103	93.3
HPLM + 10% dialyzed FBS, 0.0632 µM	121	111	98.7
HPLM + 10% dialyzed FBS, 0.19 µM	120	106	54.2
HPLM + 10% dialyzed FBS, 0.569 µM	123	114	105
HPLM + 10% dialyzed FBS, 1.71 µM	112	112	112
HPLM + 10% dialyzed FBS, 5.12 µM	124	118	117
HPLM + 10% dialyzed FBS, 15.4 µM	114	114	108
HPLM + 10% dialyzed FBS, 46.1 µM	96.9	115	99.6
RPMI 5 mM glucose + 10% FBS, 0.000781 µM	23.6	112	98.8
RPMI 5 mM glucose + 10% FBS, 0.00234 µM	106	105	95.1
RPMI 5 mM glucose + 10% FBS, 0.00702 µM	106	110	98.1
RPMI 5 mM glucose + 10% FBS, 0.0211 µM	117	116	104
RPMI 5 mM glucose + 10% FBS, 0.0632 µM	111	114	107
RPMI 5 mM glucose + 10% FBS, 0.19 µM	109	108	60.4
RPMI 5 mM glucose + 10% FBS, 0.569 µM	111	113	125
RPMI 5 mM glucose + 10% FBS, 1.71 µM	122	115	109
RPMI 5 mM glucose + 10% FBS, 5.12 µM	124	123	124
RPMI 5 mM glucose + 10% FBS, 15.4 µM	111	128	116
RPMI 5 mM glucose + 10% FBS, 46.1 µM	107	110	97.2
RPMI 5 mM glucose + 10% dialyzed FBS, 0.000781 µM	108	93.4	101
RPMI 5 mM glucose + 10% dialyzed FBS, 0.00234 µM	98.5	103	85.1
RPMI 5 mM glucose + 10% dialyzed FBS, 0.00702 µM	124	98.1	109
RPMI 5 mM glucose + 10% dialyzed FBS, 0.0211 µM	122	103	90.5
RPMI 5 mM glucose + 10% dialyzed FBS, 0.0632 µM	124	102	102
RPMI 5 mM glucose + 10% dialyzed FBS, 0.19 µM	111	113	43.6
RPMI 5 mM glucose + 10% dialyzed FBS, 0.569 µM	111	114	118
RPMI 5 mM glucose + 10% dialyzed FBS, 1.71 µM	121	113	104
RPMI 5 mM glucose + 10% dialyzed FBS, 5.12 µM	118	112	116
RPMI 5 mM glucose + 10% dialyzed FBS, 15.4 µM	119	106	115
RPMI 5 mM glucose + 10% dialyzed FBS, 46.1 µM	103	98.4	110

AUC of viability dose-response curve
Settings	NOMO1 [1]	P12-Ichikawa [2]	SEM cells [6]
HPLM + 10% dialyzed FBS	457	450	438
RPMI 5 mM glucose + 10% FBS	391	452	444
RPMI 5 mM glucose + 10% dialyzed FBS	473	458	432

Cn1cnc2c(F)c(Nc3ccc(Br)cc3Cl)c(C(=O)NOCCO)cc21
AUC of viability dose-response curve
Settings	NOMO1 [1]	P12-Ichikawa [2]	SEM cells [6]
HPLM + 10% dialyzed FBS	260	295	295
RPMI 5 mM glucose + 10% FBS	289	295	278
RPMI 5 mM glucose + 10% dialyzed FBS	258	299	273

COc1cc(Nc2ncc(F)c(Nc3ccc4c(n3)N(COP(=O)(O)O)C(=O)C(C)(C)O4)n2)cc(OC)c1OC
cell viability [%]
Settings	NOMO1 [3]	P12-Ichikawa [4]	SEM cells [5]
HPLM + 10% dialyzed FBS, 0.000781 µM	93.5	97	77
HPLM + 10% dialyzed FBS, 0.00234 µM	94.8	102	88.7
HPLM + 10% dialyzed FBS, 0.00702 µM	101	101	95.8
HPLM + 10% dialyzed FBS, 0.0211 µM	97.2	102	91.2
HPLM + 10% dialyzed FBS, 0.0632 µM	122	108	65.9
HPLM + 10% dialyzed FBS, 0.19 µM	106	106	55.2
HPLM + 10% dialyzed FBS, 0.569 µM	87.6	105	35
HPLM + 10% dialyzed FBS, 1.71 µM	99.5	103	33.5
HPLM + 10% dialyzed FBS, 5.12 µM	116	110	49.9
HPLM + 10% dialyzed FBS, 15.4 µM	93.5	108	37.1
HPLM + 10% dialyzed FBS, 46.1 µM	91.1	98.2	35.5
RPMI 5 mM glucose + 10% FBS, 0.000781 µM	80.8	100	98.2
RPMI 5 mM glucose + 10% FBS, 0.00234 µM	90.2	98.2	108
RPMI 5 mM glucose + 10% FBS, 0.00702 µM	94.1	89.6	102
RPMI 5 mM glucose + 10% FBS, 0.0211 µM	100	100	107
RPMI 5 mM glucose + 10% FBS, 0.0632 µM	103	97.4	77.9
RPMI 5 mM glucose + 10% FBS, 0.19 µM	98.6	96.8	41.1
RPMI 5 mM glucose + 10% FBS, 0.569 µM	95.6	92.4	26.5
RPMI 5 mM glucose + 10% FBS, 1.71 µM	94.4	95.7	34.7
RPMI 5 mM glucose + 10% FBS, 5.12 µM	94.1	95.2	42.8
RPMI 5 mM glucose + 10% FBS, 15.4 µM	94.2	93.9	35.1
RPMI 5 mM glucose + 10% FBS, 46.1 µM	92.6	87.4	34.4
RPMI 5 mM glucose + 10% dialyzed FBS, 0.000781 µM	101	92.8	80.8
RPMI 5 mM glucose + 10% dialyzed FBS, 0.00234 µM	89	94.8	96.6
RPMI 5 mM glucose + 10% dialyzed FBS, 0.00702 µM	90.8	98.4	83.5
RPMI 5 mM glucose + 10% dialyzed FBS, 0.0211 µM	80.2	98	82.1
RPMI 5 mM glucose + 10% dialyzed FBS, 0.0632 µM	89.6	103	60.2
RPMI 5 mM glucose + 10% dialyzed FBS, 0.19 µM	102	97.7	35.7
RPMI 5 mM glucose + 10% dialyzed FBS, 0.569 µM	88.5	93.9	25.1
RPMI 5 mM glucose + 10% dialyzed FBS, 1.71 µM	86.6	91.1	23.7
RPMI 5 mM glucose + 10% dialyzed FBS, 5.12 µM	94.6	101	35.1
RPMI 5 mM glucose + 10% dialyzed FBS, 15.4 µM	89.4	91.6	22
RPMI 5 mM glucose + 10% dialyzed FBS, 46.1 µM	99.1	91.6	24.6

AUC of viability dose-response curve
Settings	NOMO1 [1]	P12-Ichikawa [2]	SEM cells [6]
HPLM + 10% dialyzed FBS	472	470	287
RPMI 5 mM glucose + 10% FBS	453	456	292
RPMI 5 mM glucose + 10% dialyzed FBS	438	457	245
